This is an account of results in ChEMBL document CHEMBL1159321, “Novel acylated triterpene glycosides from Muraltia heisteria” (J Nat Prod, 2002).

The test system of the assay is HT-29. In words: Cytotoxicity against human HT-29 cells at 12 to 50 ug/ml. The format is functional, cell-based.

Active and inactive are the calls of the source. The calls are words filed in the database; no cut-off is given here.

`COc1cc(/C=C/C(=O)O[C@@H]2[C@H](O)[C@@H](O[C@@H]3O[C@@H](C)[C@H](O[C@@H]4OC[C@@H](O)[C@H](O[C@@H]5O[C@H](CO)[C@H](O[C@@H]6OC[C@H](O)[C@H](O)[C@H]6O)[C@H](O)[C@H]5O)[C@H]4O)[C@@H](O)[C@H]3O)[C@H](OC(=O)[C@]34CCC(C)(C)C[C@H]3C3=CC[C@@H]5[C@@]6(C)C[C@H](O)[C@H](O[C@@H]7O[C@H](CO)[C@@H](O)[C@H](O)[C@H]7O)[C@@](C)(C(=O)O)[C@@H]6CC[C@@]5(C)[C@]3(CO)CC4)O[C@@H]2C)cc(OC)c1OC`: the result was Active.
